Like-named read-outs stand apart in the source and are kept apart here.
Columns and labels:
MDA-MB-436 cells = assay: Resazurin-based cell viability assay, monotherapy drug screen; set-up: species or system human; AUC: scale not given here; conditions: MDA-MB-436; for IC50: Homo sapiens, growth rate inhibition concentration at GR(c) = 0.5, 24 h, read-out: GR50 (the source's name); for AUC: area under the dose response curve, 24 h; for GRmax: drug efficacy at highest tested dose (<0 cytotoxic, 0 cytostatic, >0 partial growth inhibition)
Outline: (§1)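 Cells were seeded at the highest density (tested 1000-16000 cells/well) giving linear growth between days 1 and 3, keeping them in exponential phase over the ~52 h experiment. Viability was read after 4 h at 37 °C with 0.2 mg/ml resazurin added at 10% of medium volume; ex 560/em 615 nm.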

MDA-MB-453 cells = assay: as above; set-up: species or system human; AUC: scale not given here; conditions: MDA-MB-453; for IC50: Homo sapiens; for AUC: area under the dose response curve, 24 h
Outline: as §1

BT-549 cells = assay: as above; set-up: species or system human; AUC: scale not given here; conditions: BT-549; for AUC: area under the dose response curve, 24 h; for GRmax: drug efficacy at highest tested dose (<0 cytotoxic, 0 cytostatic, >0 partial growth inhibition); for IC50: Homo sapiens
Outline: as §1

MDA-MB-468 cells = assay: as above; set-up: species or system human; AUC: scale not given here; conditions: MDA-MB-468; for IC50: Homo sapiens; for AUC: area under the dose response curve, 24 h
Outline: as §1

HCC70 cells = assay: as above; set-up: species or system human; AUC: scale not given here; conditions: HCC70; for AUC: area under the dose response curve, 24 h; for GRmax: drug efficacy at highest tested dose (<0 cytotoxic, 0 cytostatic, >0 partial growth inhibition); for IC50: Homo sapiens
Outline: as §1

MCF-7 cells = assay: as above; set-up: species or system human; AUC: scale not given here; conditions: MCF-7; for IC50: Homo sapiens, MCF7; for AUC: area under the dose response curve, 24 h; for GRmax: drug efficacy at highest tested dose (<0 cytotoxic, 0 cytostatic, >0 partial growth inhibition)
Outline: as §1

MCF-10A cells = assay: as above; set-up: species or system human; AUC: scale not given here; conditions: for IC50: Homo sapiens; for AUC: area under the dose response curve, 24 h
Outline: as §1

HCC38 cells = assay: as above; set-up: species or system human; AUC: scale not given here; conditions: HCC38; for AUC: area under the dose response curve, 24 h; for GRmax: drug efficacy at highest tested dose (<0 cytotoxic, 0 cytostatic, >0 partial growth inhibition); for IC50: Homo sapiens
Outline: as §1

HCC1806 cells = assay: as above; set-up: species or system human; AUC: scale not given here; conditions: HCC1806; for AUC: area under the dose response curve, 24 h; for GRmax: drug efficacy at highest tested dose (<0 cytotoxic, 0 cytostatic, >0 partial growth inhibition); for IC50: Homo sapiens
Outline: as §1

[1] = tested on: eight TNBC cell lines (BT-549, CAL-148, HCC1806, HCC38, HCC70, MDA-MB-436, MDA-MB-453, MDA-MB-468); assay: Monotherapy drug screen, mean across the TNBC cell lines
Outline: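 Cells seeded at 4.0 × 10^3–7.5 × 10^3/well, grown 24 h, then drug-treated 24 h with matched solvent-vehicle controls per concentration; resazurin absorbance read-out, viability normalised to vehicle after background subtraction, t = 0 untreated cells for GR. AUC, IC50, GR50, GRmax via GRmetrics; combinations predicted by IDACombo, synergy scored with SynergyFinder.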

[2] = 24 h drug treatment, read-out: IC50
[3] = growth rate inhibition concentration at GR(c) = 0.5, 24 h, read-out: GR50 (the source's name)

Compound	IC50 (MDA-MB-436 cells)	AUC (MDA-MB-436 cells)	GRmax (MDA-MB-436 cells)	IC50 (MDA-MB-453 cells; [2])	IC50 (MDA-MB-453 cells; [3])	AUC (MDA-MB-453 cells)	AUC (BT-549 cells)	GRmax (BT-549 cells)	IC50 (BT-549 cells; [3])	IC50 (MDA-MB-468 cells; [2])	IC50 (MDA-MB-468 cells; [3])	AUC (MDA-MB-468 cells)	AUC (HCC70 cells)	GRmax (HCC70 cells)	IC50 (HCC70 cells; [2])	IC50 (HCC70 cells; [3])	IC50 (MCF-7 cells; [3])	AUC (MCF-7 cells)	GRmax (MCF-7 cells)	IC50 (MCF-10A cells; [2])	further results
COc1cccc2c1C(=O)c1c(O)c3c(c(O)c1C2=O)C[C@@](O)(C(=O)CO)C[C@@H]3O[C@H]1C[C@H](N)[C@@H](O)[C@H](C)O1 [Epirubicin]	3600 nM	0.84	0.26	5300 nM	3200 nM	0.90	0.88	0.34	4300 nM	2200 nM	960 nM	0.80	0.83	−0.49	1600 nM	1000 nM	1100 nM	0.89	0.42	690 nM	IC50 (BT-549 cells; [2]): 4600 nM; IC50 (MCF-7 cells; [2]): 1500 nM; IC50 (MCF-10A cells; [3]): 690 nM; AUC (MCF-10A cells): 0.69; AUC (HCC38 cells): 0.81; GRmax (HCC38 cells): −0.03; IC50 (HCC38 cells; [2]): 2300 nM; IC50 (HCC38 cells; [3]): 690 nM; AUC (HCC1806 cells): 0.86; GRmax (HCC1806 cells): 0.45; IC50 (HCC1806 cells; [3]): 6200 nM; cytotoxic effect at the highest dose ([1]; TNBC cell lines, by GRmax): lowest cytotoxic effects
CC(C)C[C@H](NC(=O)CNC(=O)c1cc(Cl)ccc1Cl)B(O)O [MLN 2238, MLN-2238]	160 nM	0.88	−0.78	4300 nM	640 nM	0.81	0.75	0.40	140 nM	240 nM	55 nM	0.67	0.78	−0.36	2700 nM	740 nM	340 nM	0.87	−0.29	410 nM	IC50 (MCF-10A cells; [3]): 76 nM; AUC (MCF-10A cells): 0.72; AUC (HCC38 cells): 0.59; GRmax (HCC38 cells): −0.99; IC50 (HCC38 cells; [2]): 110 nM; IC50 (HCC38 cells; [3]): 71 nM; AUC (HCC1806 cells): 0.75; GRmax (HCC1806 cells): 0.39; IC50 (HCC1806 cells; [2]): 3000 nM; IC50 (HCC1806 cells; [3]): 3300 nM; IC50 ([1]; Homo sapiens, 24 h, read-out: GR50 (mean ± SD)): 680 ± 1000 nM; area under the dose response curve (AUC), mean ± SD ([1]; TNBC cell lines, 24 h): 0.76 ± 0.10

From publication PMC10825133, “Repurposing proteasome inhibitors for improved treatment of triple-negative breast cancer” (Cell Death Discovery, 2024)
